In US7183306B2, “Pyrazole derivatives” (Astellas Pharma Inc., priority 2002, dated 2007):

Compound	melting point [°C]
COc1ccc(-n2nc(C(=O)C(C)C)cc2-c2ccc(OCCNS(C)(=O)=O)cc2)cc1	155
COc1ccc(-n2nc(C(=O)C(C)C)cc2-c2ccc(OCCNC(N)=O)cc2)cn1	145 to 147
COc1ccc(-n2nc(OC(C)C)cc2-c2ccc(OCCNS(C)(=O)=O)cc2)cc1	167.9 to 168
COc1ccc(-n2nc(OC(C)C)cc2-c2ccc(OCCNC(N)=O)cc2)cc1	139 to 140
COc1ccc(-n2nc(NC(=O)N(C)C)cc2-c2ccc(OCCNS(C)(=O)=O)cc2)cc1	166 to 167
COc1ccc(-n2nc(OC)cc2-c2ccc(OCCNS(C)(=O)=O)cc2)cc1	103 to 104
COCCOc1cc(-c2ccc(OCCNS(C)(=O)=O)cc2)n(-c2ccc(OC)cc2)n1	94.5 to 94.7
COc1ccc(-n2nc(OC(C)C)cc2-c2ccc(OCCO)cc2)cn1	74 to 75
CCOCCOc1cc(-c2ccc(OCCNS(C)(=O)=O)cc2)n(-c2ccc(OC)cc2)n1	116.3 to 116.4
COc1ccc(-n2nc(C(=O)N3CCCCC3)cc2-c2ccc(OCCNS(C)(=O)=O)cc2)cn1	158.8 to 159.1
CCN(C)C(=O)c1cc(-c2ccc(OCCNS(C)(=O)=O)cc2)n(-c2ccc(OC)nc2)n1	110 to 111
CCOC(=O)c1cc(-c2ccc(OCCO[Si](C)(C)C(C)(C)C)cc2)n(-c2ccc(OC)cc2)n1	86 to 87
COc1ccc(-n2nc(NC(=O)N(C)C)cc2-c2ccc(OCCNC(N)=O)cc2)cc1	193 to 196
CCOCCOc1cc(-c2ccc(OCCNC(N)=O)cc2)n(-c2ccc(OC)cc2)n1	124.1 to 124.2
COc1ccc(-n2nc(OCC(=O)N(C)C)cc2-c2ccc(OCCNC(N)=O)cc2)cc1	223 to 227
COc1ccc(-n2nc(C(=O)N3CCCCC3)cc2-c2ccc(OCCNC(N)=O)cc2)cc1	152 to 152.2
COc1ccc(-n2nc(C(F)(F)F)cc2-c2ccc(CNC(N)=O)cc2)cn1	147 to 149

Next, values leading:

melting point [°C]	Compound
158 to 159	COc1ccc(-n2nc(-c3nc(C)no3)cc2-c2ccc(OCCO)cc2)cc1
97 to 98	COc1ccc(-n2nc(C(F)(F)C(F)(F)F)cc2-c2ccc(CCO)cc2)cc1
89 to 92	COc1ccc(-n2nc(C(F)(F)F)cc2-c2ccc(CCO)cc2)cn1
111 to 112	COc1ccc(-n2nc(C3CC3)cc2-c2ccc(CCO)cc2)cc1
166 to 168	COc1ccc(-n2nc(C3CC3)cc2-c2ccc(OCCNS(C)(=O)=O)cc2)cc1
136 to 137	COc1ccc(-n2nc(C(=O)C3CC3)cc2-c2ccc(OCCNC(N)=O)cc2)cc1
117 to 119	COc1ccc(-n2nc(Cl)cc2-c2ccc(OCCNS(C)(=O)=O)cc2)cc1
96 to 99	COc1ccc(-n2nc(S(C)(=O)=O)cc2-c2ccc(OCCO)cc2)cc1
168 to 169	COc1ccc(-n2nc(C(F)(F)F)cc2-c2ccc(OCC(N)=O)cc2)cc1
104 to 106	COc1ccc(-n2nc(C(=O)C3CC3)cc2-c2ccc(OCCO)cc2)cn1
95 to 97	COc1ccc(-n2nc(C3CC3)cc2-c2ccc(OCCNS(C)(=O)=O)cc2)cn1
179.3 to 179.6	COc1ccc(-n2nc(C(=O)N3CCCCC3)cc2-c2ccc(CNS(C)(=O)=O)cc2)cc1
149.8 to 150.8	CCN(C)C(=O)c1cc(-c2ccc(CNS(C)(=O)=O)cc2)n(-c2ccc(OC)cc2)n1
155.8 to 155.9	COc1ccc(-n2nc(C(=O)C(C)C)cc2-c2ccc(CNS(C)(=O)=O)cc2)cc1
94 to 94.3	COc1ccc(-n2nc(OC)cc2-c2ccc(CNS(C)(=O)=O)cc2)cc1
68.3 to 69.3	COc1ccc(-n2nc(Cl)cc2-c2ccc(CNS(C)(=O)=O)cc2)cc1
167.4 to 167.6	COc1ccc(-n2nc(NC(=O)N(C)C)cc2-c2ccc(OCCO)cc2)cc1
125.5 to 126.2	COc1ccc(-n2nc(Cl)cc2-c2ccc(CNC(N)=O)cc2)cc1
